Experimental data from patent US12622910B2, “Inhibitors of Bruton's tyrosine kinase and methods of their use” (Janssen Pharmaceutica NV, priority 2021, dated 2026).

Key:
[1] = system: receptors, enzymes, and ion channels; experiment: Panel of diverse proteins (54 test targets); format: binding; settings: 10 μM
Procedure: (§1) RESULTS AND DISCUSSION—Selectivity—The compound of Formula (III) was evaluated in three selectivity panels to assess the potential for off-target pharmacology (Table 8). […] The kinase off-target profile of The compound of Formula (III) was assessed in a full human wild-type panel using radiometric kinase activity assays (KinaseProfiler™ and IC50Profiler™; Eurofins Scientific) (Table 9; FIG. 23). The compound of Formula (III) inhibited 4/278 kinases >50% at 1 micromolar, identifying BTK and the three other kinases having analogous Cys residues with the potential for covalent inhibition (BMX, TEC, BLK). […]. The cellular kinase selectivity of The compound of Formula (III) was established in native Ramos B cell kinome assays (KiNativ™; ActivX) confirmed BTK as the primary target with inhibition of BLK and TEC inhibition detected (Table 10).

BTK [2] = target: T1, BTK (Homo sapiens, UniProt Q06187); experiment: Ramos B cell BTK occupancy assay (probe ELISA); format: cell-based; set-up: endogenous in cells
T1 sequence (Q06187 whole entry): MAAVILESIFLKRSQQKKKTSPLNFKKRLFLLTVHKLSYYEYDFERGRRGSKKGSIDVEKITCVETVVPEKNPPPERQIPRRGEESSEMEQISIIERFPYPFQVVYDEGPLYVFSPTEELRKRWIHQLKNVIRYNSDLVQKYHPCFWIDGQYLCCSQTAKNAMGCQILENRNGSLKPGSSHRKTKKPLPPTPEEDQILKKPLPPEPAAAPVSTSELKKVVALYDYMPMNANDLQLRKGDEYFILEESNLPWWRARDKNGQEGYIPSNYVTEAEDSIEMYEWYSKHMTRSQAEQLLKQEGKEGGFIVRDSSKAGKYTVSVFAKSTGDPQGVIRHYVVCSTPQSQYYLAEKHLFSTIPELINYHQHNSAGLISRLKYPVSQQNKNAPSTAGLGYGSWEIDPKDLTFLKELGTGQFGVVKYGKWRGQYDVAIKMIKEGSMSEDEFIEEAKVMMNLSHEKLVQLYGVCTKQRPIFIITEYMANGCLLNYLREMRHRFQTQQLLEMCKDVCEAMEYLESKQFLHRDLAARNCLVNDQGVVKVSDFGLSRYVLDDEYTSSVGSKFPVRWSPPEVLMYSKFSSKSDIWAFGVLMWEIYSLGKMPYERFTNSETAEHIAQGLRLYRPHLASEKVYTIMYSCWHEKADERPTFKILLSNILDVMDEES
Procedure: In vitro cellular target engagement-The dose-response of BTK occupancy was assessed using a Ramos B cell occupancy assay. Irreversible reaction with […] excludes it from further reaction and enables selective detection of the free (unreacted) BTK with a chemical probe, which utilizes the same binding site and reaction mechanism as the compound of formula (III). The probe carries a biotin sidechain to tag free BTK with an affinity handle to enable detection by ELISA.

P-gp (MDR1) = experiment: in vitro; settings: dog, MDCK-MDR1
Procedure: In vitro Absorption, Distribution, Metabolism, and Excretion—The compound of Formula (III) was assessed at a concentration of 5 μM in cell permeability models.

CYP3A4 = target: T2, CYP3A4 (Homo sapiens, UniProt P08684); experiment: Chemical inhibition of turnover in pooled human liver microsomes (ketoconazole); format: in vitro ADME; settings: 1 μM, HLM 0.5 mg/mL
T2 construct: with specific CYP probe substrates in human liver microsomes; from tissue; host or cells: human liver microsomes
T2 sequence (P08684 whole entry): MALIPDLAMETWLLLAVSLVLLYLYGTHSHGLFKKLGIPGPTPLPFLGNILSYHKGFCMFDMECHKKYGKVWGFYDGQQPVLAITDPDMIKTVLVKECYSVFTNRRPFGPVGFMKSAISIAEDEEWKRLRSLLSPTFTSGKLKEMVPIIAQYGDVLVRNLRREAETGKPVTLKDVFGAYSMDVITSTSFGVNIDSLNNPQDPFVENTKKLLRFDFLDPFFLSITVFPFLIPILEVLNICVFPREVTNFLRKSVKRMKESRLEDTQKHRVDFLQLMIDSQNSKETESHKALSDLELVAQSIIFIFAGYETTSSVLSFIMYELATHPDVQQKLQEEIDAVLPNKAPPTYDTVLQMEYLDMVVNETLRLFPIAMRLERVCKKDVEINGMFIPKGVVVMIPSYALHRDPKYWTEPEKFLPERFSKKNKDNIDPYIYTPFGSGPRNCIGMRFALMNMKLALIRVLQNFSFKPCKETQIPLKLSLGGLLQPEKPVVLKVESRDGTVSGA

BTK [3] = target: T1, BTK; experiment: ActivX KiNativ native kinase profiling, Ramos cell lysates; format: binding; set-up: endogenous in cells
Procedure: as §1

hind paw inflammation = experiment: Rat collagen-induced arthritis; format: in vivo, female Wistar rat
Text: (§2) In vivo activity in collagen-induced arthritis—A rat CIA model in female Wistar rats was used to define the impact of the compound of Formula (III) on chronic inflammation and derive PK-PD correlations (FIG. 16). YiSaipu™ (recombinant human tumor necrosis factor-α receptor (type II): IgGI Fc (rhTNFR:Fc) fusion protein; biogeneric version of Etanercept™) was used as a comparator. […] The doses required to achieve meaningful efficacy correlated with a BTK target occupancy threshold of >75% over 24 hours based on the preceding target engagement studies.
(§3) Rat collagen-induced arthritis—An emulsion was prepared on ice from equal volumes of type II collagen (CII; Chondrex) (2 mg/mL in 100 mM acetic acid (Sinopharm Chemical Reagent Co. Ltd)) and Incomplete Freund's Adjuvant (IFA) (Sigma-Aldrich) by high speed homogenization (28,000 rpm) for 3 min (FLUKO Equipment Shanghai Co. Ltd). Eighty-two rats were used in the study. Before immunization, 6 rats were randomly selected as a naïve group. The other 76 rats were anesthetized with inhalational isoflurane, and injected intradermally at the base of the tail with 0.2 mL of the emulsion (1 mg/mL CII/IFA), 2 to 3 cm from the body on day 0 and day 7. On day 10, the 56 rats with the most developed arthritis based on paw volume measurements out of the 76 rats that were immunized were divided into 7 groups (n=8) with a stratified random block design according to average hind paw volume of each rat. Each group with similar starting paw inflammation was administered with vehicle or different doses of the compound of Formula (III) (0.3, 1, 2, 3, 10 mg/kg, PO, QD, days 10-17) or YiSaiPu (biosimilar etarnacept) (15 mg/kg, IP, QOD, days 10-16).
(§4) Hind paws volume and body weight were monitored daily for 7 consecutive days (days 10-16) after initiation of test article dosing. Left and right paw volumes in each rat were measured by a Plethysmometer (Catalog No. 7140, Ugo Basile. Italy). Blood (about 300 μL) in the groups treated with the compound of Formula (III) was collected into heparinized tubes via retro-orbital bleeding under isoflurane anesthesia on day 17-18. For groups treated with the compound of Formula (III), the composite collection time points were 0, 0.5, 1, 2, 4, 8, 12 and 24 hrs after last administration of the compound of Formula (III). After collection, blood samples were centrifuged (5,000 rpm for 10 min), plasma collected, and the concentrations of the compound of Formula (III) were determined using liquid chromatography mass spectrophotometry.

[4] = Rat collagen-induced arthritis; format: in vivo, female Wistar rat; settings: female, Wistar, rat, plasma, oral, 2 mg/kg/day
Text: as §2, §3, §4

[5] = Plasma protein binding, equilibrium dialysis; format: in vitro ADME, Sprague Dawley rat
Procedure: Additional Data on Preclinical PK Profile—Protein binding of the compound of Formula (III) was studied using an equilibrium dialysis method in plasma from human, cynomolgus monkey, beagle dog, Sprague Dawley rat, CD-1 mouse, and guinea pig at 0.25, 2.5, and 25 μM. […] In human and monkey, the plasma protein binding was concentration dependent. […] Free fraction of the compound of Formula (III) in liver microsomes from various species ranged from 75.1% to 87.9% at 0.25 mg/mL and from 58.9% to 86.5% at 1.0 mg/mL (Table 17). […] In hepatocytes, the compound of Formula (III) turnover followed a similar trend, with T1/2 ranging from 75.3 minutes in monkey to 278.1 minutes in human.

Q: For `C=CC(=O)N[C@H]1CCC[C@H]1NC(=O)c1sc2nccc3c2c1NC(=O)N3c1cnc(CC(C)C)cc1C` (atropisomer, axis not shown) [compound of Formula (III), N-((1R,2S)-2-Acrylamidocyclopentyl)-5-(S)-(6-isobutyl-4-methylpyridin-3-yl)-4-oxo-4,5-dihydro-3H-1-thia-3,5,8-triazaacenaphthylene-2-carboxamide], which “binding in off-target panel” value [1] is on record?
A: did not bind >50% at 10 μM for any of the 54 test targets

Q: And the “time to full BTK occupancy” value (BTK [2]; 100 and 300 nM)?
A: ≤ 40 min

Q: What about the IC50 (BTK [2]; Ramos B cells, n=11, read-out: BTK occupancy IC50 (mean±SD)) of the same compound?
A: 21 ± 7 nM

Q: What about the Papp A→B at 5 μM (P-gp (MDR1)) of the same compound?
A: < 0.483 ×10⁻⁶ cm/s

Q: What about the Papp B→A at 5 μM (P-gp (MDR1)) of the same compound?
A: 55.4 ×10⁻⁶ cm/s

Q: What about the efflux ratio at 5 μM (P-gp (MDR1)) of the same compound?
A: > 115

Q: What about the “inhibition of turnover by ketoconazole” value (CYP3A4) of the same compound?
A: > 97%

Q: What about the inhibition at 1 µM (BTK [3]; Lys labelling) of the same compound?
A: 90.3%

Q: What about the inhibition at 1 µM (BTK [3]; activation loop labeling) of the same compound?
A: 94.4%

Q: And the “effect on hind paw inflammation” value (hind paw inflammation; 0.3, 1, 2, 3, 10 mg/kg/day PO QD)?
A: attenuated hind paw inflammation in a dose-dependent manner

Q: And the “dose with effect on inflammation equivalent to anti-TNFα comparator” value (hind paw inflammation; PO QD)?
A: ≥ 2 mg/kg/day

Q: What about the AUC(0-t) ([4]; read-out: AUClast at efficacious dose) of the same compound?
A: 324 ng·h/mL

Q: And the Cmax ([4]; read-out: Cmax at efficacious dose)?
A: 46.6 ng/mL

Q: What about the “% Free in plasma” value ([5]; 0.25 μM) of the same compound?
A: 3.73%

Q: What about the fraction unbound at 2.5 μM ([5]; Sprague Dawley, rat, plasma, 2.5 μM, read-out: % Free in plasma) of the same compound?
A: 0.0365

Q: And the fraction unbound at 25 μM ([5]; Sprague Dawley, rat, plasma, 25 μM, read-out: % Free in plasma)?
A: 0.0405
